System: MV-4-11 cells
Assay: Gene expression microarray analysis (Affymetrix PrimeView) and GSEA
Assay type: cell-based, human
Design: RFU PODN (11730768_x_at) / Fold change /veh PODN (11730768_x_at) / RFU LINC00158 (11744669_a_at) / Fold change /veh LINC00158 (11744669_a_at) / RFU DUSP10 (11751237_a_at) / Fold change /veh DUSP10 (11751237_a_at) / RFU ID3 (11757404_x_at) / Fold change /veh ID3 (11757404_x_at) / RFU PLEKHG5 (11737974_s_at) / Fold change /veh PLEKHG5 (11737974_s_at) / RFU LRRC4B (11730491_at) / Fold change /veh LRRC4B (11730491_at) / RFU GIMAP4 (11747438_a_at) / Fold change /veh GIMAP4 (11747438_a_at) / RFU KRT8 (11758183_x_at) / Fold change /veh KRT8 (11758183_x_at) / RFU CNN1 (11734310_a_at) / Fold change /veh CNN1 (11734310_a_at) / RFU VPS37D (11726825_at) / Fold change /veh VPS37D (11726825_at) / RFU C10orf10 (11716522_x_at) / Fold change /veh C10orf10 (11716522_x_at) / RFU KIR2DL2 /// KIR2DL4 /// KIR2DL5A /// KIR2DL5B /// KIR2DS1 /// KIR2DS2 /// KIR2DS3 /// KIR2DS4 /// KIR3DL3 /// KIR3DL3 /// KIR3DS1 (11738374_at) / Fold change /veh KIR2DL2 /// KIR2DL4 /// KIR2DL5A /// KIR2DL5B /// KIR2DS1 /// KIR2DS2 /// KIR2DS3 /// KIR2DS4 /// KIR3DL3 /// KIR3DL3 /// KIR3DS1 (11738374_at) / RFU C1QL1 (11718748_at) / Fold change /veh C1QL1 (11718748_at) / RFU TMPRSS4 (11747572_a_at) / Fold change /veh TMPRSS4 (11747572_a_at) / RFU HAMP (11756126_x_at) / Fold change /veh HAMP (11756126_x_at) / RFU RNFT2 (11725882_a_at) / Fold change /veh RNFT2 (11725882_a_at) / RFU NR4A2 (11747474_a_at) / Fold change /veh NR4A2 (11747474_a_at) / RFU ABCC12 (11746883_a_at) / Fold change /veh ABCC12 (11746883_a_at) / RFU TMEM136 (11760407_x_at) / Fold change /veh TMEM136 (11760407_x_at) / RFU CLDN22 /// WWC2 (11732394_at) / Fold change /veh CLDN22 /// WWC2 (11732394_at) / RFU HLA-DPB1 (11760878_x_at) / Fold change /veh HLA-DPB1 (11760878_x_at) / RFU SPINT1 (11716480_a_at) / Fold change /veh SPINT1 (11716480_a_at) / RFU GAP43 (11754022_s_at) / Fold change /veh GAP43 (11754022_s_at) / RFU A4GNT (11735810_at) / Fold change /veh A4GNT (11735810_at) / RFU PRB3 (11715151_x_at) / Fold change /veh PRB3 (11715151_x_at) / RFU TUBB4B (11761932_at) / Fold change /veh TUBB4B (11761932_at) / RFU CAPN14 (11732068_a_at) / Fold change /veh CAPN14 (11732068_a_at) / RFU TMCC2 (11721928_a_at) / Fold change /veh TMCC2 (11721928_a_at) / RFU IRGQ (11745062_a_at) / Fold change /veh IRGQ (11745062_a_at) / RFU FAM174B (11720279_a_at) / Fold change /veh FAM174B (11720279_a_at) / RFU TMPRSS4 (11748680_a_at) / Fold change /veh TMPRSS4 (11748680_a_at) / RFU FAM212B (11763350_a_at) / Fold change /veh FAM212B (11763350_a_at) / RFU PLEKHG5 (11743358_a_at) / Fold change /veh PLEKHG5 (11743358_a_at) / RFU ZSCAN30 (11745921_a_at) / Fold change /veh ZSCAN30 (11745921_a_at) / RFU CMKLR1 (11741424_a_at) / Fold change /veh CMKLR1 (11741424_a_at) / RFU LOC101060620 /// MAPK8IP1 (11723275_at) / Fold change /veh LOC101060620 /// MAPK8IP1 (11723275_at) / RFU SPTSSB (11747773_x_at) / Fold change /veh SPTSSB (11747773_x_at) / RFU PRSS12 (11739890_at) / Fold change /veh PRSS12 (11739890_at) / RFU BIN1 (11741810_x_at) / Fold change /veh BIN1 (11741810_x_at) / RFU WNT11 (11732464_a_at) / Fold change /veh WNT11 (11732464_a_at) / RFU C10orf10 (11716521_a_at) / Fold change /veh C10orf10 (11716521_a_at) / RFU C5orf56 (11738089_at) / Fold change /veh C5orf56 (11738089_at) / RFU CYB561 (11721691_x_at) / Fold change /veh CYB561 (11721691_x_at) / RFU ANKRD19P (11752326_a_at) / Fold change /veh ANKRD19P (11752326_a_at) / RFU OR2T12 /// OR2T33 /// OR2T8 (11738714_s_at) / Fold change /veh OR2T12 /// OR2T33 /// OR2T8 (11738714_s_at) / RFU VCAN (11748164_a_at) / Fold change /veh VCAN (11748164_a_at) / RFU JSRP1 (11732532_at) / Fold change /veh JSRP1 (11732532_at) / RFU KRTAP10-11 (11738290_x_at) / Fold change /veh KRTAP10-11 (11738290_x_at) / RFU MYO3A (11730013_a_at) / Fold change /veh MYO3A (11730013_a_at) / RFU EBF3 (11725865_a_at) / Fold change /veh EBF3 (11725865_a_at) / RFU CAMK2N1 (11719241_x_at) / Fold change /veh CAMK2N1 (11719241_x_at) / RFU C5orf56 (11738088_a_at) / Fold change /veh C5orf56 (11738088_a_at) / RFU OLFML3 (11715873_a_at) / Fold change /veh OLFML3 (11715873_a_at) / RFU LOC100653217 /// NTM (11731650_a_at) / Fold change /veh LOC100653217 /// NTM (11731650_a_at) / RFU MAPK11 (11762145_a_at) / Fold change /veh MAPK11 (11762145_a_at) / RFU FIZ1 (11724087_x_at) / Fold change /veh FIZ1 (11724087_x_at) / RFU OASL (11726364_x_at) / Fold change /veh OASL (11726364_x_at) / RFU SOX15 (11748057_x_at) / Fold change /veh SOX15 (11748057_x_at) / RFU CD79A (11719716_a_at) / Fold change /veh CD79A (11719716_a_at) / RFU HIST1H1D (11736915_at) / Fold change /veh HIST1H1D (11736915_at) / RFU CASKIN2 (11723855_a_at) / Fold change /veh CASKIN2 (11723855_a_at) / RFU LOC730098 (11760151_x_at) / Fold change /veh LOC730098 (11760151_x_at) / RFU OR4N2 (11742367_at) / Fold change /veh OR4N2 (11742367_at) / RFU PRRT2 (11749266_a_at) / Fold change /veh PRRT2 (11749266_a_at) / RFU SNX32 (11753110_a_at) / Fold change /veh SNX32 (11753110_a_at) / RFU CDHR5 (11726645_a_at) / Fold change /veh CDHR5 (11726645_a_at) / RFU RCAN1 (11760418_a_at) / Fold change /veh RCAN1 (11760418_a_at) / RFU FAM167A (11723789_a_at) / Fold change /veh FAM167A (11723789_a_at) / RFU FAM26E (11764081_at) / Fold change /veh FAM26E (11764081_at) / RFU ISYNA1 (11749810_s_at) / Fold change /veh ISYNA1 (11749810_s_at) / RFU ACY1 (11761880_at) / Fold change /veh ACY1 (11761880_at) / RFU 11764098_at / Fold change /veh 11764098_at / RFU SAMD14 (11745864_x_at) / Fold change /veh SAMD14 (11745864_x_at) / RFU NPB (11741838_a_at) / Fold change /veh NPB (11741838_a_at) / RFU TMPRSS6 (11731388_a_at) / Fold change /veh TMPRSS6 (11731388_a_at) / RFU KRTAP10-2 (11738614_at) / Fold change /veh KRTAP10-2 (11738614_at) / RFU ARHGAP8 /// PRR5-ARHGAP8 (11727945_x_at) / Fold change /veh ARHGAP8 /// PRR5-ARHGAP8 (11727945_x_at) / RFU KRTAP5-7 /// NADSYN1 (11734609_at) / Fold change /veh KRTAP5-7 /// NADSYN1 (11734609_at) / RFU RASL12 (11751679_a_at) / Fold change /veh RASL12 (11751679_a_at) / RFU CDKN2B (11736163_a_at) / Fold change /veh CDKN2B (11736163_a_at) / RFU PRF1 (11729649_at) / Fold change /veh PRF1 (11729649_at) / RFU, ZNF638 /// ZNF638-IT1 / Fold change vs veh, ZNF638 /// ZNF638-IT1 / RFU, PANK3 / Fold change vs veh, PANK3 / RFU, SH3YL1 / Fold change vs veh, SH3YL1 / RFU, ZEB2 / Fold change vs veh, ZEB2 / RFU, NRIP1 / Fold change vs veh, NRIP1 / RFU, PTTG1IP / Fold change vs veh, PTTG1IP / RFU, CAPN2 / Fold change vs veh, CAPN2 / RFU, MED14 / Fold change vs veh, MED14 / RFU, SNORA58 / Fold change vs veh, SNORA58 / RFU, C1orf63 / Fold change vs veh, C1orf63 / RFU, LRRFIP1 / Fold change vs veh, LRRFIP1 / RFU, NDUFAF7 / Fold change vs veh, NDUFAF7 / RFU, SLC12A2 / Fold change vs veh, SLC12A2 / RFU, IBTK / Fold change vs veh, IBTK / RFU, ESF1 / Fold change vs veh, ESF1 / Fold change vs veh, TMEM50B / RFU, TAOK1 / Fold change vs veh, TAOK1 / RFU, ACBD3 / Fold change vs veh, ACBD3 / RFU, TMA16 / Fold change vs veh, TMA16 / RFU, RWDD3 / Fold change vs veh, RWDD3 / RFU, BCAT1 / Fold change vs veh, BCAT1 / RFU, EDEM3 / Fold change vs veh, EDEM3 / RFU, TMEM33 / Fold change vs veh, TMEM33 / RFU, WDR75 / Fold change vs veh, WDR75 / RFU, AHCTF1 / Fold change vs veh, AHCTF1 / RFU, TFRC / Fold change vs veh, TFRC / RFU, ZDHHC17 / Fold change vs veh, ZDHHC17 / RFU, NOM1 / Fold change vs veh, NOM1 / RFU, ARL8B / Fold change vs veh, ARL8B / RFU, ZBTB11 / Fold change vs veh, ZBTB11 / RFU, TAMM41 / Fold change vs veh, TAMM41 / RFU, KIAA1704 /// LOC100996395 / Fold change vs veh, KIAA1704 /// LOC100996395 / RFU, ING1 / Fold change vs veh, ING1 / RFU, TRMT61B / Fold change vs veh, TRMT61B / RFU, FUBP3 / Fold change vs veh, FUBP3 / RFU, TP53 / Fold change vs veh, TP53 / RFU, TNKS2 / Fold change vs veh, TNKS2 / RFU, ZFP14 / Fold change vs veh, ZFP14 / RFU, ACTR2 / Fold change vs veh, ACTR2 / RFU, PPP3R1 / Fold change vs veh, PPP3R1 / RFU, PIK3R1 / Fold change vs veh, PIK3R1 / RFU, HNRNPA1 / Fold change vs veh, HNRNPA1 / RFU, RNF170 / Fold change vs veh, RNF170 / RFU, ZNF28 / Fold change vs veh, ZNF28 / RFU, RNGTT / Fold change vs veh, RNGTT / RFU, OGT / Fold change vs veh, OGT / RFU, BRD1 / Fold change vs veh, BRD1 / RFU, MARS / Fold change vs veh, MARS / RFU, ZNF655 / Fold change vs veh, ZNF655 / RFU, FAHD1 / Fold change vs veh, FAHD1 / RFU, BDP1 / Fold change vs veh, BDP1 / RFU, LRRCC1 / Fold change vs veh, LRRCC1 / RFU, ARID1A / Fold change vs veh, ARID1A / RFU, ZNF146 / Fold change vs veh, ZNF146 / RFU, ZNF330 / Fold change vs veh, ZNF330 / RFU, GPN3 / Fold change vs veh, GPN3 / RFU, C9orf123 / Fold change vs veh, C9orf123 / RFU, N4BP2L2 / Fold change vs veh, N4BP2L2 / RFU, ARFIP1 / Fold change vs veh, ARFIP1 / RFU, FAM179B / Fold change vs veh, FAM179B / RFU, BCL10 / Fold change vs veh, BCL10 / RFU, UHRF1BP1L / Fold change vs veh, UHRF1BP1L / RFU, BET1 / Fold change vs veh, BET1 / RFU, CNOT2 / Fold change vs veh, CNOT2 / RFU, ZNF268 / Fold change vs veh, ZNF268 / Fold change vs veh, ZNF507 / RFU, DGCR2 / Fold change vs veh, DGCR2 / RFU, WDSUB1 / Fold change vs veh, WDSUB1 / Fold change vs veh, HSP90B1 /// MIR3652 / RFU, ADSS / Fold change vs veh, ADSS / RFU, GK / Fold change vs veh, GK / RFU, ZNF148 / Fold change vs veh, ZNF148 / RFU, TAF9 / Fold change vs veh, TAF9 / RFU, SLC1A5 / Fold change vs veh, SLC1A5 / RFU, SLMO2 / Fold change vs veh, SLMO2 / RFU, ABCC4 / Fold change vs veh, ABCC4 / RFU, LOC101060439 /// RAP1B / Fold change vs veh, LOC101060439 /// RAP1B / RFU, RFX7 / Fold change vs veh, RFX7 / RFU, GTPBP10 / Fold change vs veh, GTPBP10 / RFU, CNEP1R1 / Fold change vs veh, CNEP1R1 / RFU, BIVM-ERCC5 /// ERCC5 / Fold change vs veh, BIVM-ERCC5 /// ERCC5 / RFU, ILF3 / Fold change vs veh, ILF3 / RFU 11762660_at / Fold change /veh 11762660_at / RFU VCAN (11757783_s_at) / Fold change /veh VCAN (11757783_s_at) / RFU DDX43 (11728927_at) / Fold change /veh DDX43 (11728927_at) / RFU KRT8 (11758188_x_at) / Fold change /veh KRT8 (11758188_x_at) / RFU NKD1 (11759106_at) / Fold change /veh NKD1 (11759106_at) / RFU SRD5A1 (11742802_a_at) / Fold change /veh SRD5A1 (11742802_a_at) / RFU TPSAB1 /// TPSB2 (11721975_s_at) / Fold change /veh TPSAB1 /// TPSB2 (11721975_s_at) / RFU GSTM3 (11746129_a_at) / Fold change /veh GSTM3 (11746129_a_at) / RFU IL23R (11737362_x_at) / Fold change /veh IL23R (11737362_x_at) / RFU TMEM51 (11727254_a_at) / Fold change /veh TMEM51 (11727254_a_at) / RFU PIWIL2 (11732686_x_at) / Fold change /veh PIWIL2 (11732686_x_at) / RFU ORM1 (11744905_x_at) / Fold change /veh ORM1 (11744905_x_at) / RFU CCDC152 (11743942_at) / Fold change /veh CCDC152 (11743942_at) / RFU ECM1 (11717891_a_at) / Fold change /veh ECM1 (11717891_a_at) / RFU IL23R (11748794_a_at) / Fold change /veh IL23R (11748794_a_at) / RFU TNFAIP8L3 (11732012_x_at) / Fold change /veh TNFAIP8L3 (11732012_x_at) / RFU MBOAT4 (11741988_at) / Fold change /veh MBOAT4 (11741988_at) / RFU 11764193_at / Fold change /veh 11764193_at / RFU TMEM53 (11763286_at) / Fold change /veh TMEM53 (11763286_at) / RFU MAGEB2 (11727129_at) / Fold change /veh MAGEB2 (11727129_at) / RFU TMEM200A (11744735_a_at) / Fold change /veh TMEM200A (11744735_a_at) / RFU CCDC152 (11751479_a_at) / Fold change /veh CCDC152 (11751479_a_at) / RFU FAM211A (11726209_a_at) / Fold change /veh FAM211A (11726209_a_at) / RFU RGS16 (11746705_a_at) / Fold change /veh RGS16 (11746705_a_at) / RFU VCAN (11755009_s_at) / Fold change /veh VCAN (11755009_s_at) / RFU RHOB (11743442_s_at) / Fold change /veh RHOB (11743442_s_at) / RFU RGS16 (11720943_a_at) / Fold change /veh RGS16 (11720943_a_at) / RFU RGS16 (11720944_at) / Fold change /veh RGS16 (11720944_at) / RFU, VPS4B / Fold change vs veh, VPS4B / RFU, CREB1 / Fold change vs veh, CREB1 / RFU, DNAJC13 / Fold change vs veh, DNAJC13 / RFU, GNAQ / Fold change vs veh, GNAQ / RFU, CDK5R1 / Fold change vs veh, CDK5R1 / RFU, ZRANB3 / Fold change vs veh, ZRANB3 / RFU, CUL4A / Fold change vs veh, CUL4A / RFU, CCNY / Fold change vs veh, CCNY / RFU, UFL1 / Fold change vs veh, UFL1 / RFU, COG3 / Fold change vs veh, COG3 / RFU, DIAPH2 / Fold change vs veh, DIAPH2 / RFU, SKA2 / Fold change vs veh, SKA2 / RFU, AFF3 / Fold change vs veh, AFF3 / RFU, LMF1 / Fold change vs veh, LMF1 / RFU, IPO11 / Fold change vs veh, IPO11 / RFU, DFFB / Fold change vs veh, DFFB / RFU, FOXP1 / Fold change vs veh, FOXP1 / RFU, CARD8 / Fold change vs veh, CARD8 / RFU, STRN3 / Fold change vs veh, STRN3 / RFU, ADK / Fold change vs veh, ADK / RFU, RASSF2 / Fold change vs veh, RASSF2 / RFU, WIPF1 / Fold change vs veh, WIPF1 / RFU, LARP1B / Fold change vs veh, LARP1B / RFU, RASA1 / Fold change vs veh, RASA1 / RFU, RB1 / Fold change vs veh, RB1 / RFU, PPFIA1 / Fold change vs veh, PPFIA1 / RFU, MAT2A / Fold change vs veh, MAT2A / RFU, CCT5 / Fold change vs veh, CCT5 / RFU, WDR92 / Fold change vs veh, WDR92 / RFU, CUX1 / Fold change vs veh, CUX1 / RFU, TTC7A / Fold change vs veh, TTC7A / RFU, TMEM135 / Fold change vs veh, TMEM135 / RFU, DEPTOR / Fold change vs veh, DEPTOR / RFU, CPM / Fold change vs veh, CPM / RFU, DNAJB6 / Fold change vs veh, DNAJB6 / RFU, CACNA2D3 / Fold change vs veh, CACNA2D3 / RFU, DTX4 / Fold change vs veh, DTX4 / RFU, TFCP2 / Fold change vs veh, TFCP2 / RFU, GMCL1 /// GMCL1P1 / Fold change vs veh, GMCL1 /// GMCL1P1 / RFU, AEBP2 / Fold change vs veh, AEBP2 / RFU, SNHG1 /// SNORD22 /// SNORD25 /// SNORD26 /// SNORD27 /// SNORD28 /// SNORD29 /// SNORD31 / Fold change vs veh, SNHG1 /// SNORD22 /// SNORD25 /// SNORD26 /// SNORD27 /// SNORD28 /// SNORD29 /// SNORD31 / Fold change (Aza/veh), C12orf56 (ProbeSet 11735607_a_at) / Fold change (ACY-1035/veh), C12orf56 (ProbeSet 11735607_a_at) / Fold change (Aza/veh), FGFR1OP (ProbeSet 11751329_s_at) / Fold change (ACY-1035/veh), FGFR1OP (ProbeSet 11751329_s_at) / Fold change (Aza/veh), VPS36 (ProbeSet 11739960_a_at) / Fold change (ACY-1035/veh), VPS36 (ProbeSet 11739960_a_at) / RFU SYPL1 (11715823_x_at) / Fold change /veh SYPL1 (11715823_x_at) / RFU IGFBP7 (11715501_s_at) / Fold change /veh IGFBP7 (11715501_s_at) / RFU REEP3 (11722064_at) / Fold change /veh REEP3 (11722064_at) / RFU IGLL1 (11728026_x_at) / Fold change /veh IGLL1 (11728026_x_at): dose or concentration left out as unconfirmed
Details: ProbeSet 11749781_s_at; LIST B

Nc1ncn([C@@H]2O[C@H](CO)[C@@H](O)[C@H]2O)c(=O)n1 [azacitidine]
Fold change vs veh, BCAT1: 0.85
